{
  "source": "patent US20030176508A1",
  "about": "“Ferulic acid ethyl-guaiacol or vinyl-guaiacol as preservative combination in cosmetic compositions” (priority 2000, published 2003)",
  "format_in_all_cases": "cell-based",
  "key": {"[1]": {"system": "Saccharomyces cerevisiae #4105", "assay": "Challenge test of hand lotion with A. niger and S. cerevisiae (S. cerevisiae rating)", "details": "1000 ppm of each compound, S. cerevisiae (second figure of cell); for Bacterial Growth Rating 1 wk: 1 week; for Bacterial Growth Rating 2 wk: 2 weeks; for Bacterial Growth Rating 3 wk: 3 weeks; for Bacterial Growth Rating 2 day: 2 days", "description": "(§1) The samples were tested by the challenge test described below. In this challenge test, samples were stored at room temperatures, inoculated at zero days and streaked at 0 days, 1 day, 2 days, 1 week, 2 weeks and 3 weeks. […] Twenty-five grams of sample are weighed out in one-ounce glass jars. […] Biocide is dissolved into solution before use and different concentrations are prepared by adding the appropriate amount of the biocide solution to the samples. […] A negative control is included using a sample without any biocide. […] Before inoculation, samples are streaked on MYA (malt yeast agar) plates with sterile cotton swabs. The plates are incubated at 30° C. for 48 hours and then read using a bacterial colony counter and rated for microbial growth according to the Growth Rating Chart. […] 5. The inoculum is prepared by adding 9.9 mL sterile 0.85% saline solution to a pure culture slant grown on MYA. A cotton-tipped swab is used to gently rub the surface of the slant to free the cells. […] The yeast and fungus used are: [table] […] Samples are inoculated with 0.05 mL (for 25 g samples) of the An suspension and 0.05 mL of the Sc suspension. 7. Immediately after inoculation, samples are streaked with sterile cotton swabs on MYA plates. The plates are then incubated at 30° C. for 48 hours. The samples are incubated at room temperature. 8. Samples are streaked again at 1 day, 2 days, 1 week, 2 weeks and 3 weeks. 9. All plates are incubated 48 hours at 30° C. then read and rated according to the Growth Rating Chart. Samples are kept at room temperature."}, "Bacteria Pool [2]": {"system": "Bacteria Pool", "assay": "Challenge test of hand lotion with bacteria pool", "set-up": "key to Bacterial Growth Rating 1 day / Bacterial Growth Rating 1 wk / Bacterial Growth Rating 3 wk: 1: 0 (No Growth); 2: 1-4; 3: 5-10; 4: 11-25; 26-50; 6: 51-100; 7: 101-200; 8: 201-300; 9: (TNTC) too numerous to count; 10: (TNTC) solid m", "details": "1000 ppm of each compound; for Bacterial Growth Rating 1 wk: streaked 1 week after inoculation; for Bacterial Growth Rating 2 wk: streaked 2 weeks after inoculation; for Bacterial Growth Rating 3 wk: streaked 3 weeks after inoculation; for Bacterial Growth Rating 1 day: streaked 1 day after inoculation; for Bacterial Growth Rating 2 day: streaked 2 days after inoculation", "description": "(§2) The samples were tested by the challenge test described below. In this challenge test, samples were stored at room temperatures, inoculated at zero days and streaked at 0 days, 1 day, 2 days, 1 week, 2 weeks and 3 weeks. […] Twenty-five grams of sample are weighed out in one-ounce glass jars. […] Biocide was dissolved into solution before use and different concentrations are prepared by adding the appropriate amount of the biocide solution to the samples. […] A negative control is included using a sample without any biocide. 4. The bacteria pool inoculum is made fresh on the day of inoculation by using equal volumes of the 24 hour cultures of the ATCC bacteria grown individually in nutrient broth at 30° C. […] 5. Before inoculation, samples are streaked on TSA (tryptic soy agar) plates with sterile cotton swabs. The plates are incubated at 30° C. for 48 hours and then read using a bacterial colony counter and rated for microbial growth according to the Growth Rating Chart. […] Samples are inoculated with 0.05 mL (for 25 g samples) of the […]. […] Immediately after inoculation, samples are streaked with sterile cotton swabs on TSA plates. The plates are then incubated at 30° C. for 48 hours. The samples are incubated at room temperature. 8. Samples are streaked again at 1 day, 2 days, 1 week, 2 weeks and 3 weeks. […] All plates are incubated 48 hours at 30° C. then read and rated according to the Growth Rating Chart. […] Samples are kept at room temperature."}, "Bacteria Pool [3]": {"system": "Bacteria Pool", "assay": "Challenge test of shampoo with bacteria pool", "set-up": "key: 1: 0 (No Growth); 2: 1-4; 3: 5-10; 4: 11-25; 26-50; 6: 51-100; 7: 101-200; 8: 201-300; 9: (TNTC) too numerous to count; 10: (TNTC) solid m", "details": "1000 ppm of each compound; for Bacterial Growth Rating 1 wk: streaked 1 week after inoculation; for Bacterial Growth Rating 2 wk: streaked 2 weeks after inoculation; for Bacterial Growth Rating 3 wk: streaked 3 weeks after inoculation; for Bacterial Growth Rating 1 day: streaked 1 day after inoculation; for Bacterial Growth Rating 2 day: streaked 2 days after inoculation", "description": "as §2"}, "[4]": {"system": "Aspergillus niger ATCC #16404", "assay": "Challenge test of hand lotion with A. niger and S. cerevisiae (A. niger rating)", "details": "1000 ppm of each compound, A. niger (first figure of cell); for Bacterial Growth Rating 1 wk: 1 week; for Bacterial Growth Rating 2 wk: 2 weeks; for Bacterial Growth Rating 3 wk: 3 weeks; for Bacterial Growth Rating 2 day: 2 days", "description": "as §1"}},
  "data": [
    {"smiles": "C=Cc1ccc(O)c(OC)c1", "note": "[vinylguaiacol, 4-hydroxy-3-methoxystyrene]", "values": [
      {"measurement": "Bacterial Growth Rating 1 wk", "setting": "[1]", "value": "2 (1-4)"},
      {"measurement": "Bacterial Growth Rating 2 wk", "setting": "[1]", "value": "1 (0 (No Growth))"},
      {"measurement": "Bacterial Growth Rating 3 wk", "setting": "[1]", "value": "1 (0 (No Growth))"},
      {"measurement": "Bacterial Growth Rating 1 day", "setting": "[1]", "value": "2 (1-4)"},
      {"measurement": "Bacterial Growth Rating 2 day", "setting": "[1]", "value": "3 (5-10)"},
      {"measurement": "Bacterial Growth Rating 1 wk", "setting": "Bacteria Pool [2]", "value": "4 (11-25)"},
      {"measurement": "Bacterial Growth Rating 2 wk", "setting": "Bacteria Pool [2]", "value": "3 (5-10)"},
      {"measurement": "Bacterial Growth Rating 3 wk", "setting": "Bacteria Pool [2]", "value": "1 (0 (No Growth))"},
      {"measurement": "Bacterial Growth Rating 1 day", "setting": "Bacteria Pool [2]", "value": "4 (11-25)"},
      {"measurement": "Bacterial Growth Rating 2 day", "setting": "Bacteria Pool [2]", "value": "3 (5-10)"},
      {"measurement": "Bacterial Growth Rating 1 wk", "setting": "Bacteria Pool [3]", "value": "8 (201-300)"},
      {"measurement": "Bacterial Growth Rating 2 wk", "setting": "Bacteria Pool [3]", "value": 9},
      {"measurement": "Bacterial Growth Rating 3 wk", "setting": "Bacteria Pool [3]", "value": 9},
      {"measurement": "Bacterial Growth Rating 1 day", "setting": "Bacteria Pool [3]", "value": 9},
      {"measurement": "Bacterial Growth Rating 2 day", "setting": "Bacteria Pool [3]", "value": 9},
      {"measurement": "Bacterial Growth Rating 1 wk", "setting": "[4]", "value": "1 (0 (No Growth))"},
      {"measurement": "Bacterial Growth Rating 2 wk", "setting": "[4]", "value": "1 (0 (No Growth))"},
      {"measurement": "Bacterial Growth Rating 3 wk", "setting": "[4]", "value": "1 (0 (No Growth))"},
      {"measurement": "Bacterial Growth Rating 1 day", "setting": "[4]", "value": "3 (5-10)"},
      {"measurement": "Bacterial Growth Rating 2 day", "setting": "[4]", "value": "1 (0 (No Growth))"}
    ]},
    {"smiles": "CCc1ccc(O)c(OC)c1", "note": "[ethylguaiacol, 4-ethyl-2-methoxyphenol]", "values": [
      {"measurement": "Bacterial Growth Rating 1 wk", "setting": "[1]", "value": "4 (11-25)"},
      {"measurement": "Bacterial Growth Rating 2 wk", "setting": "[1]", "value": "2/2 (1-4)"},
      {"measurement": "Bacterial Growth Rating 3 wk", "setting": "[1]", "value": "3/3 (5-10)"},
      {"measurement": "Bacterial Growth Rating 1 day", "setting": "[1]", "value": "4/4 (11-25)"},
      {"measurement": "Bacterial Growth Rating 2 day", "setting": "[1]", "value": "4 (11-25)"},
      {"measurement": "Bacterial Growth Rating 1 wk", "setting": "Bacteria Pool [2]", "value": "5 (26-50)"},
      {"measurement": "Bacterial Growth Rating 2 wk", "setting": "Bacteria Pool [2]", "value": "4 (11-25)"},
      {"measurement": "Bacterial Growth Rating 3 wk", "setting": "Bacteria Pool [2]", "value": "1 (0 (No Growth))"},
      {"measurement": "Bacterial Growth Rating 1 day", "setting": "Bacteria Pool [2]", "value": 9},
      {"measurement": "Bacterial Growth Rating 2 day", "setting": "Bacteria Pool [2]", "value": "6 (51-100)"},
      {"measurement": "Bacterial Growth Rating 1 wk", "setting": "Bacteria Pool [3]", "value": 9},
      {"measurement": "Bacterial Growth Rating 2 wk", "setting": "Bacteria Pool [3]", "value": 9},
      {"measurement": "Bacterial Growth Rating 3 wk", "setting": "Bacteria Pool [3]", "value": 9},
      {"measurement": "Bacterial Growth Rating 1 day", "setting": "Bacteria Pool [3]", "value": 9},
      {"measurement": "Bacterial Growth Rating 2 day", "setting": "Bacteria Pool [3]", "value": 9},
      {"measurement": "Bacterial Growth Rating 1 wk", "setting": "[4]", "value": "3 (5-10)"},
      {"measurement": "Bacterial Growth Rating 2 wk", "setting": "[4]", "value": "2/2 (1-4)"},
      {"measurement": "Bacterial Growth Rating 3 wk", "setting": "[4]", "value": "3/3 (5-10)"},
      {"measurement": "Bacterial Growth Rating 1 day", "setting": "[4]", "value": "4/4 (11-25)"},
      {"measurement": "Bacterial Growth Rating 2 day", "setting": "[4]", "value": "3 (5-10)"}
    ]},
    {"smiles": "COc1cc(C=CC(=O)O)ccc1O", "note": "[ferulic acid, 4-hydroxy-3-methoxycinnamic acid]", "values": [
      {"measurement": "Bacterial Growth Rating 1 wk", "setting": "[1]", "value": "3/3 (5-10)"},
      {"measurement": "Bacterial Growth Rating 2 wk", "setting": "[1]", "value": "3 (5-10)"},
      {"measurement": "Bacterial Growth Rating 3 wk", "setting": "[1]", "value": "4 (11-25)"},
      {"measurement": "Bacterial Growth Rating 1 day", "setting": "[1]", "value": "6 (51-100)"},
      {"measurement": "Bacterial Growth Rating 2 day", "setting": "[1]", "value": "6 (51-100)"},
      {"measurement": "Bacterial Growth Rating 1 wk", "setting": "Bacteria Pool [2]", "value": 9},
      {"measurement": "Bacterial Growth Rating 2 wk", "setting": "Bacteria Pool [2]", "value": "6 (51-100)"},
      {"measurement": "Bacterial Growth Rating 3 wk", "setting": "Bacteria Pool [2]", "value": 9},
      {"measurement": "Bacterial Growth Rating 1 day", "setting": "Bacteria Pool [2]", "value": "7 (101-200)"},
      {"measurement": "Bacterial Growth Rating 2 day", "setting": "Bacteria Pool [2]", "value": "6 (51-100)"},
      {"measurement": "Bacterial Growth Rating 1 wk", "setting": "Bacteria Pool [3]", "value": 9},
      {"measurement": "Bacterial Growth Rating 2 wk", "setting": "Bacteria Pool [3]", "value": 9},
      {"measurement": "Bacterial Growth Rating 3 wk", "setting": "Bacteria Pool [3]", "value": 9},
      {"measurement": "Bacterial Growth Rating 1 day", "setting": "Bacteria Pool [3]", "value": 9},
      {"measurement": "Bacterial Growth Rating 2 day", "setting": "Bacteria Pool [3]", "value": 9},
      {"measurement": "Bacterial Growth Rating 1 wk", "setting": "[4]", "value": "3/3 (5-10)"},
      {"measurement": "Bacterial Growth Rating 2 wk", "setting": "[4]", "value": "4 (11-25)"},
      {"measurement": "Bacterial Growth Rating 3 wk", "setting": "[4]", "value": "3 (5-10)"},
      {"measurement": "Bacterial Growth Rating 1 day", "setting": "[4]", "value": "4 (11-25)"},
      {"measurement": "Bacterial Growth Rating 2 day", "setting": "[4]", "value": "4 (11-25)"}
    ]}
  ]
}
